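Cells were grown in 96-well plates and exposed to each compound for 48 hours at five concentrations; endpoints were interpolated linearly between bracketing concentrations, or set to the highest concentration if not reached. TGI: total growth inhibition.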

Test systems include SK-OV-3 ovarian; HS 578T breast; BT-549 breast; SF-539 CNS; SNB-19 CNS; RPMI-8226 leukemia; K-562 leukemia; T-47D breast; HOP-62 NSCLC; NCI-H226 lung; MDA-MB-435; MALME-3M melanoma; COLO 205 colon; SF-295 CNS; NCI-H23 lung; HT29 colon; ACHN renal; MCF7 breast; OVCAR-3 ovarian; SNB-75 CNS.
What all share (assay): NCI-60 cell line screen, 48 h

Take `C=CCCCC1SC2=C(CC)CCCN2C1=O` (configuration not stated): the TGI in the experiment with SK-OV-3 ovarian, in the experiment with HS 578T breast, in the experiment on BT-549 breast, with SF-539 CNS, in the experiment with SNB-19 CNS and in the experiment with RPMI-8226 leukemia was > 100 µM each time. Besides, the TGI in the experiment on K-562 leukemia, in the experiment on T-47D breast, in the experiment on HOP-62 NSCLC, in the experiment on NCI-H226 lung, with MDA-MB-435 and in the experiment with MALME-3M melanoma was > 100 µM in each case. In addition, the TGI with COLO 205 colon, in the experiment on SF-295 CNS, with NCI-H23 lung, in the experiment with HT29 colon, with ACHN renal and with MCF7 breast was > 100 µM in each case. The TGI in the experiment on OVCAR-3 ovarian is > 100 µM.
As to `Oc1ccc2oc3c(O)c4ccccc4cc3c2c1`, the TGI in the experiment with SK-OV-3 ovarian is 53.2 µM; with HS 578T breast, > 100 µM; in the experiment with BT-549 breast it was 15.3 µM; in the experiment with SF-539 CNS it was 3.91 µM; in the experiment with SNB-19 CNS it was > 100 µM; in the experiment with RPMI-8226 leukemia it was 3.96 µM. The TGI in the experiment with K-562 leukemia was 1.3 µM; in the experiment on T-47D breast it was 55.4 µM; in the experiment with HOP-62 NSCLC it was > 100 µM; with MDA-MB-435, 5.33 µM; with MALME-3M melanoma, 33.4 µM; in the experiment with COLO 205 colon it was 28 µM. In addition, the TGI was determined as 65.3 µM in the experiment on NCI-H23 lung; 48.6 µM in the experiment with HT29 colon; 21 µM in the experiment on ACHN renal; 18.8 µM in the experiment with MCF7 breast; 15.1 µM in the experiment on OVCAR-3 ovarian.
Regarding `NCCCCN(CCCN)C(=O)c1ccccc1`, the TGI with SK-OV-3 ovarian, in the experiment with HS 578T breast, in the experiment with BT-549 breast, in the experiment with SF-539 CNS, in the experiment on SNB-19 CNS and in the experiment with RPMI-8226 leukemia was > 100 µM each time. The TGI in the experiment on K-562 leukemia, in the experiment on T-47D breast, with HOP-62 NSCLC, in the experiment with NCI-H226 lung, with MDA-MB-435 and in the experiment on COLO 205 colon was > 100 µM in each case. The TGI with SNB-75 CNS, in the experiment with SF-295 CNS, in the experiment with NCI-H23 lung, in the experiment on HT29 colon, in the experiment with ACHN renal and with MCF7 breast was > 100 µM throughout. The TGI in the experiment with OVCAR-3 ovarian was > 100 µM.
With `O1C2C1C1OC1C1OC1C1OC21` (configuration not stated), the TGI in the experiment with SK-OV-3 ovarian, in the experiment with HS 578T breast, in the experiment with BT-549 breast, with SNB-19 CNS, in the experiment on K-562 leukemia and in the experiment with T-47D breast was > 100 µM in each case. In addition, the TGI with HOP-62 NSCLC, in the experiment on NCI-H226 lung, in the experiment on MDA-MB-435, in the experiment on MALME-3M melanoma, in the experiment with COLO 205 colon and in the experiment on SNB-75 CNS was > 100 µM each time. In addition, the TGI in the experiment on SF-295 CNS, in the experiment on NCI-H23 lung, with HT29 colon, with ACHN renal and with MCF7 breast was > 100 µM each time.
As to `N#Cc1c(NCCc2ccc(F)cc2)c2ccccc2n2c1nc1ccccc12`, the TGI is > 100 µM in the experiment with SK-OV-3 ovarian; 32 µM in the experiment with HS 578T breast; 72.6 µM in the experiment on BT-549 breast; > 100 µM in the experiment with SF-539 CNS; 51 µM with SNB-19 CNS; > 100 µM in the experiment on RPMI-8226 leukemia. For the same molecule, the TGI in the experiment with K-562 leukemia is > 100 µM; in the experiment with T-47D breast, 95.6 µM; with HOP-62 NSCLC, > 100 µM; with NCI-H226 lung it was 55.4 µM; with MDA-MB-435 it was > 100 µM; in the experiment with COLO 205 colon, > 100 µM. For the same molecule, the TGI is 30.8 µM in the experiment on SNB-75 CNS; 65.4 µM with SF-295 CNS; 39.1 µM with NCI-H23 lung; 91.5 µM with HT29 colon; 35.2 µM in the experiment with ACHN renal; > 100 µM in the experiment with MCF7 breast. Moreover, in the experiment with OVCAR-3 ovarian, the TGI was 66.4 µM.
Turning to `Nc1c(-c2nc3ccccc3o2)sc(=S)n1-c1ccc(Cl)cc1`, the TGI was 33.2 µM with SK-OV-3 ovarian; 46.4 µM in the experiment on HS 578T breast; 76 µM in the experiment with BT-549 breast; 23.9 µM with SF-539 CNS; 39.5 µM in the experiment on SNB-19 CNS; > 100 µM in the experiment on RPMI-8226 leukemia. The TGI with K-562 leukemia was > 100 µM; in the experiment on T-47D breast, 33.1 µM; in the experiment with HOP-62 NSCLC, 15.8 µM; with NCI-H226 lung, 67.1 µM; with MDA-MB-435, > 100 µM; in the experiment on MALME-3M melanoma, 56.5 µM. For the same molecule, the TGI in the experiment with COLO 205 colon was > 100 µM; with SF-295 CNS it was 27.3 µM; in the experiment on NCI-H23 lung, 37.8 µM; in the experiment on HT29 colon, > 100 µM; with ACHN renal, 24.1 µM; with MCF7 breast, > 100 µM. Besides, the TGI in the experiment with OVCAR-3 ovarian amounted to 38.1 µM.
Turning to `COC(=O)[C@H]1C[C@H]1NC(=O)C(CC(=O)OCc1ccccc1)NC(=O)OCc1ccccc1` (some centres not stated), the TGI in the experiment with SK-OV-3 ovarian was > 100 µM; in the experiment with HS 578T breast, > 100 µM; in the experiment with BT-549 breast it was 55.9 µM; with SF-539 CNS, > 100 µM; in the experiment with SNB-19 CNS, > 100 µM; in the experiment with RPMI-8226 leukemia it was 50.2 µM. Moreover, the TGI with K-562 leukemia was > 100 µM; in the experiment with T-47D breast it was 98.4 µM; with NCI-H226 lung it was > 100 µM; in the experiment on MDA-MB-435 it was 69.8 µM; in the experiment on COLO 205 colon, 43.2 µM; in the experiment with SNB-75 CNS, > 100 µM. Besides, the TGI in the experiment on SF-295 CNS, with NCI-H23 lung, in the experiment on HT29 colon, in the experiment on ACHN renal and in the experiment with MCF7 breast was > 100 µM throughout.

Values taken from PubChem BioAssay (NCI).
